What was measured:
CRL1790 cells = test: Resazurin cytotoxic assay, non-tumoral CRL1790; assay type: cell-based; details: Homo sapiens, Epithelial cell, CRL1790 non-tumoral colon epithelial cells, 48 h, mean ± SD
Method: CRL1790, SW480 and SW620 cell lines were purchased from American Type Culture Collection (ATCC). Cells were cultured at 37 °C with 5% CO2 atmosphere in medium supplemented with 10% fetal bovine serum (10270106, Gibco, Waltham, MA, USA), 10 mg/mL penicillin, 10 mg/mL streptomycin, […] amphotericin, and 0.03% L-Glutamine as recommended by the ATCC. MEM medium (M5650, Merck, Darmstadt, Germany) was used for non-tumoral CRL1790, and RPMI 1640 medium (L0501-500, Biowest, Nuaillé, France) was used for both tumoral SW480 and SW620 cell lines.
Cytotoxic activity was screened using Resazurin Fluorimetric Assay (R7017, Merck, Darmstadt, Germany), according to the manufacturer’s protocol. Cells seeded into 96-well plates (8 × 10^3 cells/well) were treated for 48 h with phenolic compounds at increasing concentrations from 2 × 10^−5 µM to 100 µM. Negative control with vehicle DMSO was included. Fluorescence was determined using Nanoquant Infinite M200 Pro multi-plate reader (Tecan). Half-maximal inhibitory concentration (IC50) values were determined in triplicate by non-linear regression with Graphpad (Prism).
Natural products such as phenolic compounds have recently attracted significant attention for their anticancer properties. […] We used three different cell lines to mimic CRC progression. In particular, CRL1790 are colon epithelial cells simulating the non-tumoral stage. In addition, SW480 is Dukes’ type B colorectal adenocarcinoma cells representing the primary tumor. Finally, SW620 constitutes Dukes’ type C colorectal adenocarcinoma derived from metastasic site cells to mimic the most aggressive metastasic stage. […] Cytotoxic potency upon 48 h treatment with phenolic compounds was examined by determination of half-maximal inhibitory concentration (IC50) values using the Resazurin method (Table 1). Only GA inhibited cell growth in SW480 and SW620 at clinically-relevant concentrations (IC50 values lower than 30 µM).

SW480 cells [1] = test: Cell cycle analysis by propidium iodide flow cytometry; assay type: cell-based, human; details: SW480, GA IC50 for 24 h
Method: Cell cycle analyses were carried out by flow cytometry with propidium iodide (PI) (P4864, Merck, Darmstadt, Germany). Cells (10^6) were seeded into 10 cm culture dishes and treated with GA IC50 for 24 h or with the vehicle DMSO as control. Cells were then fixed with ice-cold 70% ethanol on ice and stained with 0.04 mg/mL PI and 0.1 mg/mL ribonuclease A (19101, Qiagen, Hilden, Germany). Cell cycle distribution was determined by an analytical DNA flow cytometer (FACSVerse, BD Biosciences) with instrument settings on low mode and FlowJo software v10.
(§1) GA is widely present in the plant kingdom and largely found in different food sources. According to its cytotoxic activity (shown above), cell cycle analysis was performed on SW480 cells by FACS with propidium iodide staining (Figure 1C). After GA IC50 treatment for 24 h, the frequency of cells at different stages of the cell cycle changed with respect to non-treated cells (45.34% of cells at G1, 34.16% at S, 7.65% at G2/M). […] To explore this hypothesis, we determined the intracellular localization of nucleolar proteins by immunofluorescence of SW480 cells treated with GA IC50 for 6 h because we had previously observed that some DNA-binding compounds affect nucleolar organization. In particular, we analyzed three proteins that are indicative of nucleolus status, such as nucleolin (NCL), fibrillarin (FBL), and Pol I catalytic subunit A (POLR1A) (Figure 1D).

[2] = test system: 5′ETS (DNA, G4) GGGGGGCGGGTGGTTGGG; test: UV-vis titration at 265 nm; details: 100 mM KCl, 10 mM potassium phosphate; pH 7.0, 25 °C; 5 µM DNA; GA to 1:20 DNA:GA
SW480 cells [3] = test: Immunofluorescence of nucleolar proteins (NCL, FBL, POLR1A); assay type: cell-based, human; details: SW480, GA IC50 for 6 h
Method: Cells were seeded on 13 mm circular coverslips and placed in 24-well plates. After exposure to different experimental conditions, fixation was performed with 4% (v/v) paraformaldehyde (P6148, Merck, Darmstadt, Germany) for 10 min at room temperature (RT), permeabilization with 0.1% (v/v) Triton-X100 (T8787, Merck, Darmstadt, Germany) for 10 min and blocking with 10% bovine serum albumin (A7906, Merck, Darmstadt, Germany) containing 0.5% (v/v) Triton-X100 for 30 min at RT. Primary antibodies were incubated for 1 h at RT and secondary antibodies for 30 min at 4 °C in darkness. Finally, all coverslips were mounted onto slides (J2800AMNZ, Thermo scientific, Waltham, MA, USA), including DAPI (4′,6-diamidino-2-phenylindole) for nuclear counterstain. Images were acquired on a Confocal Zeiss LSM 710 inverted microscope with a 63× immersion objective. In a different manner, BG4 immunofluorescence was conducted as previously described. BG4 mean nuclear fluorescence intensity was quantified using Fiji software (N > 250). Antibodies used are listed in Supplementary Table S1.
as §1

CMYC G4 = test: PCR-stop assay, CMYC G4; assay type: biochemical; details: CMYC G4 sequence, GA 0-100 µM

## O=C(O)c1cc(O)c(O)c(O)c1 [Gallic acid, 3,4,5-trihydroxybenzoic acid]
CRL1790 cells
  IC50: > 100 µM
SW480 cells [1]; non-treated 7.65%
  % of cells at G2/M: 14.46%
SW480 cells [1]; non-treated 34.16%
  % of cells at S: 43.82%
SW480 cells [1]; non-treated 45.34%
  % of cells at G1: 28.30%
[2]
  Kd: 148 µM
SW480 cells [3]
  nucleolar localization of POLR1A: significant changes in POLR1A were not observed
  nucleolar localization of fibrillarin (FBL): segregation of FBL to nucleolar periphery caps
  nucleolar localization of nucleolin (NCL): translocation of NCL from the nucleolus to the nucleoplasm
CMYC G4
  concentration inhibiting accumulation of amplified products: 50 µM
